Assay results as given in patent publication US20260374773A1, “MULTI-CYCLIC IRAK AND FLT3 INHIBITING COMPOUNDS AND USES THEREOF” (CHILDREN'S HOSPITAL MEDICAL CENTER, priority 2022, published 2026).
pKd: −log10 of the molar value.

Assays:
IRAK1 = IRAK1 (Homo sapiens, UniProt P51617); assay: DiscoverX KINOMEscan active site-directed competition binding, IRAK1; conditions: no ATP
Excerpt: (§1) Kinase binding data were obtained for various exemplary compounds prepared according to Examples 1-8 using the DiscoverX KINOMEscan® active site-directed competition binding site-directed assay protocol described below. […] As a result, the data report thermodynamic interaction affinities (Kd values), rather than IC50 values that are dependent on ATP concentrations. The assay uses a DNA-tagged version of the protein kinase, and an immobilized ligand bound to a solid support. Compounds that directly or indirectly prevent kinase binding to the immobilized ligand reduce the amount of kinase captured on the solid support, which is detected using an ultra-sensitive qPCR method. Affinity constants reported from the assay have been reported to be independent of the immobilized ligand used that is coupled to the solid support (See supplemental information in Fabian, M. A. et. al., (2005) Nat. Biotechnol. 23, 329-336; Wodicka, L. M. et. al., (2010) Chem. Biol. 17, 1241-1249.)
(§2) Kinase-tagged T7 phage strains were prepared in an E. coli host derived from the BL21 strain. E. coli were grown to log-phase and infected with T7 phage and incubated with shaking at 32 °C until lysis. The lysates were centrifuged and filtered to remove cell debris. The remaining kinases were produced in HEK-293 cells and subsequently tagged with DNA for qPCR detection. Streptavidin-coated magnetic beads were treated with biotinylated small molecule ligands for 30 minutes at room temperature to generate affinity resins for kinase assays. The liganded beads were blocked with excess biotin and washed with blocking buffer (SeaBlock (Pierce), 1% BSA, 0.05% Tween 20, 1 mM DTT) to remove unbound ligand and to reduce non-specific binding. […] Test compounds were prepared as 111x stocks in 100% DMSO. Kds were determined using an 11-point 3-fold compound dilution series with three DMSO control points. All compounds for Kd measurements are distributed by acoustic transfer (non-contact dispensing) in 100% DMSO. The compounds were then diluted directly into the assays such that the final concentration of DMSO was 0.9%. All reactions were performed in polypropylene 384-well plates. Each was a final volume of 0.02 mL. The assay plates were incubated at room temperature with shaking for 1 hour and the affinity beads were washed with wash buffer (1×PBS, 0.05% Tween 20). The beads were then re-suspended in elution buffer (1×PBS, 0.05% Tween 20, 0.5 μM nonbiotinylated affinity ligand) and incubated at room temperature with shaking for 30 minutes. The kinase concentration in the eluates was measured by qPCR. Binding constants (Kds) were calculated with a standard dose-response curve using the Hill equation. The Hill Slope was set to −1. Curves were fitted using a non-linear least square fit with the Levenberg-Marquardt algorithm.
as §1, with “9-12” for “1-8”
(§3) Kinase-tagged T7 phage strains were prepared in an E. coli host derived from the BL21 strain. […]

FLT3 D835V = biological target: T1, FLT3 D835V (Homo sapiens, UniProt P36888, D835V); assay: DiscoverX KINOMEscan active site-directed competition binding, FLT3 D835V; conditions: no ATP
T1 sequence (P36888 27-993 D835V): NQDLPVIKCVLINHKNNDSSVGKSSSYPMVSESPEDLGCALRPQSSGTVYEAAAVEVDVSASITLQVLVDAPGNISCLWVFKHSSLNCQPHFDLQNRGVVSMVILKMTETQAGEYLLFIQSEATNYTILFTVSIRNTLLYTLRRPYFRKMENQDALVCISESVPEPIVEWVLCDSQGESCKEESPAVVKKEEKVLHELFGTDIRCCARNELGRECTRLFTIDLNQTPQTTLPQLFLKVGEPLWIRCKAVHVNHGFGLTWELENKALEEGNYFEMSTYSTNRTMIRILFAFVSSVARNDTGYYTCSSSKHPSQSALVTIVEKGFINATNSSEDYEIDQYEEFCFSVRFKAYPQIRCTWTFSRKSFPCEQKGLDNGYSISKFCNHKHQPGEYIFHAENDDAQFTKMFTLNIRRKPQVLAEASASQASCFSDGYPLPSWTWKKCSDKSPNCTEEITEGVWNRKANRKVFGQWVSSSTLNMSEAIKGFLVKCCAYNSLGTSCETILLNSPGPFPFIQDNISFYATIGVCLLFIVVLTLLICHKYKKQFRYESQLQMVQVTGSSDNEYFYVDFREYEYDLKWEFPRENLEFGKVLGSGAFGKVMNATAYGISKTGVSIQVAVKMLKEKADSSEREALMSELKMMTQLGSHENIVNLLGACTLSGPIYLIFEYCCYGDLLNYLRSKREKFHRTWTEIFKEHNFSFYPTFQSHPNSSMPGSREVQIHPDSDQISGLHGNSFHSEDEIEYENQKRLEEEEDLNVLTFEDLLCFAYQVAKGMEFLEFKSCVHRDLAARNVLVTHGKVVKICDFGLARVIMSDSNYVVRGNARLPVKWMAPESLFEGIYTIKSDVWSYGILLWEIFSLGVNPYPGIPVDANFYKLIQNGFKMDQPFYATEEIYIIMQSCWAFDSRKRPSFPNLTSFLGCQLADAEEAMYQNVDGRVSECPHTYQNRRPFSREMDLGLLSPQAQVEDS
Excerpt: as §1, §2
as §1, with “9-12” for “1-8”
as §3

IRAK1, sequence (P51617 whole entry): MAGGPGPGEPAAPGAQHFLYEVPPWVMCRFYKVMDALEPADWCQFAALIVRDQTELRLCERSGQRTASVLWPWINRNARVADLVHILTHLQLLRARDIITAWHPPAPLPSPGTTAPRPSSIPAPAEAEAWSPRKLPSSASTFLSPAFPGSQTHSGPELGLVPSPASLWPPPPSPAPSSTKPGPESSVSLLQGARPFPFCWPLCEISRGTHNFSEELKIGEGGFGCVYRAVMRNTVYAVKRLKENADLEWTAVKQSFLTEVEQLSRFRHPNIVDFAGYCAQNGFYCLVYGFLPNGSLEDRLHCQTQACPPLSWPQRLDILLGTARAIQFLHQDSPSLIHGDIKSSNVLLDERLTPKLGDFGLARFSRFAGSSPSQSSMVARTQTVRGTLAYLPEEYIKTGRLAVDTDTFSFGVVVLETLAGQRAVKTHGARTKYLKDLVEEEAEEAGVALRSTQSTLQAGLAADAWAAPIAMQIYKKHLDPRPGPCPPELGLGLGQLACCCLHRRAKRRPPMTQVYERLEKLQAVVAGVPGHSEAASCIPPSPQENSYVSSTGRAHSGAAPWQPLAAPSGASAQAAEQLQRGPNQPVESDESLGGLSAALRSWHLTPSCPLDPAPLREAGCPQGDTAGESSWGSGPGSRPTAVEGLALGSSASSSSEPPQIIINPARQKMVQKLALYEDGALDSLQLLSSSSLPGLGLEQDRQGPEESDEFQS

SMILES | pKd (IRAK1; Table 18) | pKd (FLT3 D835V; Table 18) | pKd (IRAK1; Table 12) | pKd (FLT3 D835V; Table 12)
COc1cn2ncc(-c3nc(N[C@H]4CNCC[C@@H]4F)ncc3F)c2nc1C(C)(C)O [Compound 6a, 2-(3-(5-fluoro-2-(((3S,4S)-4-fluoropiperidin-3-yl)amino)pyrimidin-4-yl)-6-methoxypyrazolo[1,5-a]pyrimidin-5-yl)propan-2-ol] | 9.55 | > 9.77 |  | 
COc1cn2ncc(-c3nc(N[C@H]4CNCC[C@@H]4F)c(C#N)cc3F)c2nc1C1CC1 [Compound 7, 6-(5-cyclopropyl-6-methoxypyrazolo[1,5-a]pyrimidin-3-yl)-5-fluoro-2-(((3S,4S)-4-fluoropiperidin-3-yl)amino)nicotinonitrile] |  |  | > 9.77 | > 9.77
COc1cn2ncc(-c3nc(N[C@H]4CNCC[C@@H]4F)c(C#N)cc3F)c2nc1C(C)(C)O [Compound 10, 5-fluoro-2-(((3S,4S)-4-fluoropiperidin-3-yl)amino)-6-(5-(2-hydroxypropan-2-yl)-6-methoxypyrazolo[1,5-a]pyrimidin-3-yl)nicotinonitrile] |  |  | 9.09 | > 9.77
COc1cn2ncc(-c3nc(N[C@H]4CNCC[C@@H]4F)c(F)cc3F)c2nc1C(C)(C)O [Compound 13, 2-(3-(3,5-difluoro-6-(((3S,4S)-4-fluoropiperidin-3-yl)amino)pyridin-2-yl)-6-methoxypyrazolo[1,5-a]pyrimidin-5-yl)propan-2-ol] |  |  | 9.57 | > 9.77
COc1cn2ncc(-c3nc(N[C@@H]4CCCNC4)ncc3F)c2nc1C1CC1 [Compound 14a, (R)-4-(5-cyclopropyl-6-methoxypyrazolo[1,5-a]pyrimidin-3-yl)-5-fluoro-N-(piperidin-3-yl)pyrimidin-2-amine] | > 9.77 | > 9.77 |  | 

Second part, the molecule after the results:

pKd (IRAK1; Table 18) | pKd (FLT3 D835V; Table 18) | pKd (IRAK1; Table 12) | pKd (FLT3 D835V; Table 12) | SMILES
9.28 | 9.32 |  |  | COc1cn2ncc(-c3ccnc(N[C@H]4CNCC[C@@H]4F)n3)c2nc1C1CC1 [Compound 7a, 4-(5-cyclopropyl-6-methoxypyrazolo[1,5-a]pyrimidin-3-yl)-N-((3S,4S)-4-fluoropiperidin-3-yl)pyrimidin-2-amine]
9.11 | > 9.77 |  |  | COc1cn2ncc(-c3cncc(N[C@H]4CNCC[C@@H]4F)n3)c2nc1C1CC1 [Compound 12a, 6-(5-cyclopropyl-6-methoxypyrazolo[1,5-a]pyrimidin-3-yl)-N-((3S,4S)-4-fluoropiperidin-3-yl)pyrazin-2-amine]
> 9.77 | 9.55 |  |  | COc1cn2ncc(-c3nc(N[C@H]4CNCC[C@@H]4F)ncc3F)c2nc1C1CC1 [Compound 15a, 4-(5-cyclopropyl-6-methoxypyrazolo[1,5-a]pyrimidin-3-yl)-5-fluoro-N-((3S,4S)-4-fluoropiperidin-3-yl)pyrimidin-2-amine]
